For five molecules, IC50 results are on record in ChEMBL document CHEMBL1128655, “3-Fluoro-2-(4-methylpiperazin-1-yl)-5,12-dihydro-5-oxobenzoxazolo[3,2-a]quinoline-6-carboxylic acid: Synthesis and In vitro cytotoxic activity” (Bioorg Med Chem Lett, 1995).

For orientation: IC50 means the concentration needed to halve the response being measured.

In brackets after ≈: the same amount, converted by molar mass. Some results are limits rather than exact numbers.

What all share (type): functional, cell-based
For test [1], the system named is SNU1. The experiment in a line: In vitro cytotoxic activity against human tumor SNU 1 (stomach) cell line.
The test system of test [2] is SNU-354. Kind of test: In vitro cytotoxic activity against human tumor SNU 354 (liver) cell line.
The test system of test [3] is SNU-C4. Kind of test: In vitro cytotoxic activity against human tumor SNU C-4(colon) cell line.
[4] abbreviates: Homo sapiens, SNU1, read-out: IC50.
Setting [5] is: Homo sapiens, SNU-354, read-out: IC50.
Setting [6] is: Homo sapiens, SNU-C4, read-out: IC50.

As for `O=C(O)c1c(=O)c2cc(F)c(N3CCNCC3)cc2n2c1oc1ccccc12`, the figures for the IC50 in test [1] (setting [4]), in test [2] (setting [5]) and in test [3] (setting [6]) were 15.3 mg/L (≈ 40.1 µM), 19.8 mg/L (≈ 51.9 µM) and 13.4 mg/L (≈ 35.1 µM), respectively.
For `CN1CCN(c2cc3c(cc2F)c(=O)c(C(=O)O)c2oc4ccccc4n23)CC1.Cl` the same measures were 2 mg/L, 1.9 mg/L and 1.8 mg/L.
For `CC(=O)N1CCN(c2cc3c(cc2F)c(=O)c(C(=O)O)c2oc4ccccc4n23)CC1` the same measures were more than 200 mg/L, more than 200 mg/L and more than 200 mg/L.
For `COc1cccc2c1C(=O)c1c(O)c3c(c(O)c1C2=O)C[C@@](O)(C(=O)CO)C[C@@H]3O[C@H]1C[C@H](N)[C@H](O)[C@H](C)O1` [DOXORUBICIN] the same measures were less than 0.5 mg/L, less than 0.5 mg/L and less than 0.5 mg/L.
Consider CISPLATIN, for which the results for the IC50 in test [1] (snu1), in test [2] (snu-354) and in test [3] (snu-c4) were 1.4 mg/L, 4.1 mg/L and 2.8 mg/L, respectively.
